Data from patent US5691338A, “1,2-dithiole-3 thiones for the treatment of reverse transcriptase-dependent viral infections” (priority 1995, dated 1997).
Entries after “also recorded” stand apart in the source; their conditions may differ. Read-outs that look alike come from different tables or passages of the source.

How the values were obtained:
[1] = single 250 mg dose, adults, cited from earlier work
[2] = target: T1, HIV-1 reverse transcriptase (RT) (Human immunodeficiency virus type 1 group M subtype B, UniProt P04585); experiment: Time-dependent (irreversible) inhibition of HIV-1 reverse transcriptase after preincubation; assay type: biochemical
T1 construct: Recombinant HIV-1 reverse transcriptase (RT) was obtained from Worthington (Freehold, N.J.); purchased Worthington (Freehold, N.J.)
Method: FIG. 6. […] RT was preincubated for the times indicated with oltipraz dissolved in DPBS containing 1 mg/ml bovine serum albumin, 0.13% DMSO, and either 4 μM TTP or 5 μg/ml poly(A):2.5 μg/ml oligo(dT). After incubation, 10 μl aliquots in triplicate were added to 25 μl of a reaction cocktail containing 4 μM TTP, 5 μg/ml poly(A), and 2.5 μg/ml oligo(dT) and assayed for TTP incorporation into DNA over 30 min. as described by Flexner, et al. (25). The insets are Kitz-Wilson transformations (41).
Reverse transcriptase assays were performed as described by Flexner, et al. (25) using recombinant HIV-1 RT as the source of enzyme. Dilutions and assay were carried out in 96-well "half-area" plates. The enzyme with various concentrations of test compounds were dissolved in DPBS containing 1% w/v BSA and diluted in 50 μl volumes; 10 μl aliquots in triplicate were transferred to another plate for the enzyme assay. The reactions were initiated by the addition of 25 μl/well of buffer containing 50 mM Tris.cndot.Cl (pH 8.0), 75 mM KCl, 1 mM dithiothreitol, 2 mM MgCl2, 5 μg/ml poly(A), 2.5 μg/ml oligo (dT), 10 μCi/ml ^32 p TTP with or without unlabeled TTP. […] TTP incorporation was measured by spotting 20 μl of the reaction cocktail onto DE81 paper, washing the paper with 4×5 min washes of 300 mM NaCl and 30 mM sodium citrate (pH 7.0), drying the paper, and counting the paper by liquid scintillation counting. The assays performed with oltipraz and 1,2-dithiole-3-thione contained 0.29% final concentration DMSO.

[3] = system: glutathione levels (GSH) in H9 cells; experiment: Elevation of glutathione (GSH) levels in H9 cells; assay type: cell-based, human; settings: for fold induction at 30 µM / fold induction at 60 µM / fold induction at 120 µM: Homo sapiens, read-out: Glutathione levels, treated to control value
Method: Five ml of medium was added to T-25 flasks and DMSO containing tests compounds were added to a final concentration of 0.1%. Control medium contained 0.1% DMSO. After the drugs were added, 5×10^6 cells in 5 ml of medium was added to each T-25 flask. The cells were grown at 37° C. in a humidified incubator supplemented with 5% CO2 until harvested (N=3 flasks/group). At the indicated times, cells were isolated by centrifugation (500×g×10 min) and were washed three times by adding 10 ml of ice-cold DPBS, mixing, and centrifuging in a refrigerated centrifuge (500×g×10 min) to isolate the cell pellets. The cells were then lysed by the addition of 400 μl of ice-cold DPBS containing 0.5% Triton X-100 and vortexing. Supernatants were then isolated by centrifuging the lysates (5000×g×20 min). Samples were kept on ice or refrigerated until the reagents for QR or GSH spectrophotometric assays were added to the aliquoted microtiter plates. QR levels were determined by aliquoting 10 μl/well of supernatant in a 96-well plate and measuring the activity by the assay described by Prochaska and Santamaria (20) except that the final NADP^+ concentration was 200 μM (21). Samples were assayed in quadruplicate, and dicoumarol inhibitable-rates (which generally represented less than 5% of the total rate) were also measured. Spectrophotometric blanks contained 10 μl of DPBS with 0.5% Triton X-100. For the GSH assay, 300 μl of sample was placed in a centricon-10microconcentrator and centrifuged (5000×g×45 min) until enough ultrafiltrate could be collected. 50 μl/well of sample in quadruplicate was placed in a 96 well "half-area" plate after which 20 μl of 1 mM Ellman's reagent dissolved in DPBS was added. The yellow color (22) developed within 5 min and was scanned with a uvmax microtiter scanner (Palo Alto, Calif.) at 405 nm. Spectrophotometric blanks contained 50 μl DPBS with 0.5% Triton X-100 and 20 μl of 1 mM Ellman's reagent in DPBS. The optical densities of the specimens were calibrated to a GSH standard curve. Protein contents were determined in 3 ml cuvettes by the Bradford method (23). The protein content in the ultrafiltrates employed for GSH determinations were negligible (<0.01 mg/ml).

[4] = system: HTLV-I reverse transcriptase; settings: MT-2 (HTLV-I-infected) cells, FIG. 7
Method: MT-2 is a lymphocytic cell-line that is transformed by, and is antigen positive for HTLV-I. HTLV-I can be detected in supernatants of MT-2 cultures by monitoring reverse transcriptase activity. Using the MT-2 system compounds that are inhibitors of HTLV-I reverse transciptase can be identified. MT-2 cells are washed and incubated in triplicate with various concentrations of the test compounds, positive drug controls, negative drug controls or media alone. A cell-line that is negative for HTLV-I, such as H9, is used as a negative reverse transcriptase control. After 72 hours of incubation, culture supernatants are harvested and tested for reverse transcriptase activity as described (25). Inhibition of reverse transcriptase activity is calculated by comparing the radioactive counts in the experimental compounds to the MT-2 non-drug controls. ED50's can be calculated for each compound.

[5] = cited from earlier work
HIV-1 (HTLVIIIB) = experiment: microbe, parasite or virus in culture; assay type: cell-based
Method: The effects for test compounds were assessed by means of both IFA and p24 release. In general, the following protocol was followed: H9 cells were infected with HIV-1 at 1000 50% infective doses of viruses/10^6 cells. Virus was allowed to adsorb for 1 h, after which unadsorbed virus was removed by centrifugation. The cells were resuspended and washed twice with PBS (without Ca^+2 or Mg^+2 salts) and centrifuged to collect the cell pellet (150×g×10 min). Cells were suspended in fresh medium and added at a final cell density of 500,000 cells/ml in a 96-well plate with media containing 0.1% DMSO and various concentrations of test compounds. The cells were re-fed freshly prepared media containing 0.1% DMSO±test compounds on day four (for preinduction experiments, cells were exposed to inducers on days -2, 0, and +4 days relative to infection). After seven days, cells were examined for cytoxicity by trypan blue exclusion, the degree of infection with HIV-1 by IFA, and the supernatants were assayed for p24 levels according to the manufacturer's directions. The IFA procedure can be summarized as follows: The cells were washed twice in PBS and were placed in 5 mm 12-well slides. After allowing the slides to dry and fixing the cells with acetone for 5 min, 10 μl of HIV-1 positive serum in 40 μl PBS was added to each well and allowed to incubate at 37° C. for 30 min. After incubation, the slides were washed twice with PBS and incubated at 37° C. for 30 min with 2.5 μl goat anti-human IgG-fluorescein isothiocyanate conjugate in 50 μl PBS containing 0.01% Evans Blue per well. The slides were then washed twice with PBS, dried, and mounted with 50% glycerol in PBS, and scored for the percentage of fluorescent cells by fluorescent microscopy.

[6] = system: glutathione S-transferases; settings: Schistosoma mansoni; cited from earlier work

Cc1c(-c2cnccn2)ssc1=S [compound 11, 4-methyl-5-(2-pyrazinyl)-1,2-dithiole-3-thione]
Cmax ([1]; read-out: peak serum level): > 4 µM | peak serum level [1]: greater than 1 μg/ml | irreversible inhibition of reverse transcriptase ([2]; kinetic behaviour): behaves kinetically as an irreversible inhibitor of RT | Ki ([2]; preincubation with TTP, experiment of FIG. 6, Kitz-Wilson): 15.6 µM | RT inactivation in the presence of poly(A):oligo(dT) ([2]; preincubation with poly(A):oligo(dT), FIG. 6 lower, listed as oltipraz): indistinguishable from rates of RT inactivation in its absence; also recorded: inconsistent with irreversible inhibition | Ki ([2]; preincubation, N=5 independent experiments): 25.9 ± 3.4 µM | kinact ([2]; preincubation, N=5 independent experiments, read-out: k3 (limiting rate of inactivation) (converted)): 1.44e-05 s⁻¹ | kinact ([2]; read-out: k3 (limiting rate of inactivation), preincubation with TTP, experiment of FIG. 6, Kitz-Wilson): 2.33e-05 s⁻¹ | Glutathione Levels ([3]; 24 h, 30 μM): 62.0 ± 2.0 nmol/mg | Glutathione Levels ([3]; 24 h, 60 μM): 83.5 ± 1.7 nmol/mg | Glutathione Levels ([3]; 24 h, 120 μM): 109 ± 28 nmol/mg | Glutathione Levels ([3]; 48 h, 30 μM): 52.7 ± 2.9 nmol/mg | Glutathione Levels ([3]; 48 h, 60 μM): 68.0 ± 2.9 nmol/mg | Glutathione Levels ([3]; 48 h, 120 μM): 79.7 ± 0.28 nmol/mg | Glutathione Levels ([3]; 72 h, 30 μM): 40.4 ± 4.7 nmol/mg | Glutathione Levels ([3]; 72 h, 60 μM): 47.3 ± 4.6 nmol/mg | Glutathione Levels ([3]; 72 h, 120 μM): 75.0 ± 8.6 nmol/mg | fold induction at 30 µM ([3]; H9, 24 h): 1.1 | fold induction at 60 µM ([3]; H9, 24 h): 1.48 | fold induction at 120 µM ([3]; H9, 24 h): 1.93 | fold induction at 30 µM ([3]; H9, 48 h): 1.52 | fold induction at 60 µM ([3]; H9, 48 h): 1.96 | fold induction at 120 µM ([3]; H9, 48 h): 2.28 | fold induction at 30 µM ([3]; H9, 72 h): 0.86 | fold induction at 60 µM ([3]; H9, 72 h): 1.01 | fold induction at 120 µM ([3]; H9, 72 h): 1.6 | elevation of GSH ([3]; dose- and time-dependent, H9 cells): able to elevate both GSH and QR levels | effect on levels of RT activity in media [4]: dose-dependent effect | tolerability at anti-HIV-1 doses ([5]; in vivo): well tolerated | tolerability of high doses ([5]; single or split doses of 20-35 mg/kg, treatment of schistosomiasis): can be tolerated | inhibition of HIV-1 replication, result in words (HIV-1 (HTLVIIIB); H9 cells): effective | inhibitory potency less than that of AZT (HIV-1 replication) (HIV-1 (HTLVIIIB); H9 cells, relative to AZT (FIG. 3)): approximately 100 fold | IC50 (HIV-1 (HTLVIIIB); Human immunodeficiency virus 1, H9, read-out: IC50 HIV-1 replication (Exp 1)): 2 µM | IC50 (HIV-1 (HTLVIIIB); Human immunodeficiency virus 1, H9, read-out: IC50 HIV-1 replication (Exp 2)): 3 µM | IC50 (HIV-1 (HTLVIIIB); Human immunodeficiency virus 1, H9, read-out: IC50 HIV-1 replication as determined by IFA): 9.7 ± 2 µM | effect of pre-treatment of H9 cells with inducers on anti-HIV-1 activity (HIV-1 (HTLVIIIB); inducers 3-4 days prior to exposure to virus, listed as oltipraz): did not increase the antiviral effect; also recorded: no enhancement of the anti-HIV-1 activity | inhibition of glutathione S-transferases [6]: irreversibly inhibits
